Measured values from publication PMC7588595, “Small-molecule active pharmaceutical ingredients of approved cancer therapeutics inhibit human aspartate/asparagine-β-hydroxylase” (Bioorganic & Medicinal Chemistry, 2020).
Where a name gives a salt, the structure may show the parent alone.

Target: T1, human AspH (His6-AspH315–758) (Homo sapiens, UniProt Q12797)
T1 construct: N-Terminally His6-tagged human AspH315–758 (His6-AspH315–758) was produced in Escherichia coli BL21 (DE3) cells; made in house; host or cells: Escherichia coli BL21 (DE3), pET-28a(+) vector
T1 sequence (Q12797 315-758): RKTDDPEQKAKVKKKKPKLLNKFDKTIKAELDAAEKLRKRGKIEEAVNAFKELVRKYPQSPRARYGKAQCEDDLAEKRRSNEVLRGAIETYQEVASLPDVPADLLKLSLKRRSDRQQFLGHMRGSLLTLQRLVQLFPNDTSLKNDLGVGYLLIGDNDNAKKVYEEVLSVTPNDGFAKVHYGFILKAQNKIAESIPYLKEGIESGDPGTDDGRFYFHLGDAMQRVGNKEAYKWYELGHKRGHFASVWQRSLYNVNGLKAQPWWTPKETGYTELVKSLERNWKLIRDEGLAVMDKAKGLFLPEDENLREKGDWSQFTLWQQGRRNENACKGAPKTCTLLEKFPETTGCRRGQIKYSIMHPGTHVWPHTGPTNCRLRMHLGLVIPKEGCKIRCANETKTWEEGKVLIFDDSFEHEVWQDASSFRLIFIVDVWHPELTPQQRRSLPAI
Assay: SPE-MS AspH inhibition assay (hFX-CP101-119 substrate hydroxylation)
Type: biochemical
Conditions: AspH-inhibitor screening; for Plate 1 (% inhibition): 384-well Plate 1; for Plate 1 (% conversion): 384-well Plate 1, substrate conversion; for Plate 1-duplicate (% conversion): substrate conversion

Compound | Plate 1 (% inhibition) | Plate 1 (% conversion) | Plate 1-duplicate (% inhibition) | Plate 1-duplicate (% conversion)
COc1ncc(-c2ccc3nccc(-c4ccnnc4)c3c2)cc1NS(=O)(=O)c1ccc(F)cc1F [GSK2126458] | 8.17% | 45.98% | 17.15% | 43.54%
C[C@]12CC[C@H](O)CC1=CC[C@@H]1[C@@H]2CC[C@]2(C)C(c3cccnc3)=CC[C@@H]12 [Abiraterone] | 1.80% | 48.92% | 1.40% | 51.35%
Cc1ccc(-n2nc(C(C)(C)C)cc2NC(=O)Nc2ccc(OCCN3CCOCC3)c3ccccc23)cc1 [BIRB 796 (Doramapimod)] | 7.83% | 46.14% | 2.76% | 50.67%
C=CC(=O)Nc1cc2c(Nc3ccc(F)c(Cl)c3)ncnc2cc1OCCCN1CCOCC1 [Canertinib] | -58.69% | 76.85% | -55.96% | 79.80%
CN(C)c1nc(N(C)C)nc(N(C)C)n1 [Altretamine] | 3.32% | 48.22% | 13.59% | 45.30%
O=[N+]([O-])c1ccc2c(c1)S(=O)(=O)C=C2 [Stattic] | 9.52% | 45.35% | 9.59% | 47.29%
Cl.NC(=O)Nc1cc(-c2cccc(F)c2)sc1C(=O)N[C@H]1CCCNC1 [AZD 7762 hydrochloride] | 14.30% | 43.15% | 4.66% | 49.73%
Cn1cc(C[C@@H](N)C(=O)O)c2ccccc21 [1-methyl-D-tryptophan, 95%] | 6.32% | 46.83% | 9.06% | 47.55%
Nc1ccn([C@@H]2O[C@H](CO)[C@@H](O)[C@@H]2O)c(=O)n1 [Cytarabine hydrochloride] | 2.14% | 48.76% | 3.50% | 50.30%
COc1cc2nccc(Oc3ccc(NC(=O)Nc4cc(C)on4)c(Cl)c3)c2cc1OC [AV-951 (Tivozanib)] | 11.01% | 44.66% | 0.70% | 51.69%
CNC(=O)c1ccc(N2C(=S)N(c3ccc(C#N)c(C(F)(F)F)c3)C(=O)C23CCC3)cc1F [RD162] | -1.12% | 50.27% | -2.20% | 53.13%
CN(Cc1cnc2nc(N)nc(N)c2n1)c1ccc(C(=O)N[C@@H](CCC(=O)O)C(=O)O)cc1 [Abitrexate/Methotrexate] | 8.67% | 45.75% | 10.50% | 46.84%
CC[C@]1(O)C[C@H]2CN(CCc3c([nH]c4ccccc34)[C@@](C(=O)OC)(c3cc4c(cc3OC)N(C=O)[C@H]3[C@@](O)(C(=O)OC)[C@H](OC(C)=O)[C@]5(CC)C=CCN6CC[C@]43[C@@H]65)C2)C1.O=S(=O)(O)O [Vincristine Sulfate (Oncovin)] | 7.89% | 46.11% | 3.90% | 50.11%
Cc1c(C(=O)Nc2ccc(N3C[C@@H](C)O[C@@H](C)C3)nc2)cccc1-c1ccc(OC(F)(F)F)cc1.O=P(O)(O)O.O=P(O)(O)O [NVP-LDE225 (Diphosphate salt)] | -20.13% | 59.05% | -19.69% | 61.81%
O=C1c2c(O)ccc(O)c2C(=O)c2c(NCCNCCO)ccc(NCCNCCO)c21 [Mitoxantrone] | -29.89% | 63.55% | -22.19% | 63.05%

Next, values leading:

Plate 1 (% inhibition) | Plate 1 (% conversion) | Plate 1-duplicate (% inhibition) | Plate 1-duplicate (% conversion) | Compound
-27.40% | 62.40% | -34.23% | 69.02% | CCn1c(-c2nonc2N)nc2cnc(Oc3cccc(NC(=O)c4ccc(OCCN5CCOCC5)cc4)c3)cc21 [GSK 269962]
32.19% | 34.89% | 30.40% | 36.96% | c1ccc2c(CCNc3ccc(Nc4ccncc4)cc3)c[nH]c2c1 [JNJ 26854165 (Serdemetan)]
-7.35% | 53.15% | -6.18% | 55.11% | Cn1cc(CNCC2CCN(c3ncc(C(=O)NO)cn3)CC2)c2ccccc21 [JNJ-26481585_Quisinostat]
3.78% | 48.01% | 1.98% | 51.06% | COc1cc2c(cc1-c1c(C)noc1C)ncc1[nH]c(=O)n([C@H](C)c3ccccn3)c12 [I-BET151 (GSK1210151A)]
1.01% | 49.28% | 12.84% | 45.67% | O=S(=O)(c1cccc2cnccc12)N1CCCNCC1 [HA-1077 (Fasudil)]
-15.10% | 56.72% | -11.47% | 57.73% | Cc1ccc(NC(=O)c2ccc(CN3CCN(C)CC3)cc2)cc1Nc1nc(-c2cccnc2)cs1 [Masitinib]
2.59% | 48.55% | 1.17% | 51.46% | KX2-391
-5.43% | 52.26% | -7.38% | 55.70% | CCc1cncnc1N1CCN(Cc2nc3ccc(C(F)(F)F)cc3[nH]2)CC1 [PF-04708671]
4.05% | 47.88% | 7.04% | 48.55% | CC(=O)OC[C@H]1O[C@@H](n2ccc(=O)[nH]c2=O)[C@H](OC(C)=O)[C@@H]1OC(C)=O [Uridine triacetate]
12.19% | 44.12% | 8.98% | 47.59% | CC[C@H](C)C(=O)O[C@H]1C[C@H](O)C=C2C=C[C@H](C)[C@H](CC[C@@H](O)C[C@@H](O)CC(=O)O)[C@H]21 [Pravastatin]
2.09% | 48.78% | 7.11% | 48.51% | COc1cc(Nc2ncc3c(n2)-c2ccc(Cl)cc2C(c2c(F)cccc2OC)=NC3)ccc1C(=O)O [MLN8237_Alisertib]
33.05% | 34.49% | 43.66% | 30.39% | CC(C)n1cnc2c(NCCc3ccc(O)cc3)nc(-c3csc4ccccc34)nc21.Cl [SR1 HCl]
